Source: patent US4847306A, “Antihypercholesterolemic compounds” (Merck & Co., Inc., priority 1988, dated 1989)

These compounds were tested on HMG-CoA reductase (assay: HMG-CoA Reductase Inhibition Assay (in vitro, intrinsic inhibitory activity)). Settings: compactin assigned a value of 100; IC50 of test compound compared with that of compactin determined simultaneously; tested as sodium salt of dihydroxy acid form; solubilized rat liver microsomal enzyme.
Type: biochemical
Experimental: The intrinsic HMG-CoA reductase inhibition activity of the claimed compounds is measured in the in vitro protocol published in J. Med. Chem., 28, P. 347-358 (1985) and described below:
Isolation of HMG-CoA Reductase. Male Holtzman Sprague-Dawley rate (225-250 g) were kept on reversed lighting and fed Purina rat chow containing 3% cholestyramine for 7 days preceding their sacrifice by CO2 asphyxiation. Livers were removed 6 hours into the dark cycle and used immediately to prepare microsomes. HMG-CoA reductase was solubilized from the freshly prepared microsome by the method of Heller and Shrewsbury [J. Boil Chem., 1976, 251,3815], and purified through the second ammonium sulfate precipitation step as described by Kleinsek et al., [Proc. Natl. Acad. Sci. USA, 1977, 74, 1431]. The enzyme preparation was tested for HMG-CoA reductase potency and diluted with 100 mM phosphate buffer (pH 7.2) so that 100 μL of the enzyme solution, when added to the assay control, gave a value of 50,000-60,000 dpm. The enzyme preparation was stored at -80° C.
HMG-CoA Reductase Inhibition Assay. The assay is essentially the procedure of Shefer et al., [J. Lipid Res., 1972, 13, 402]. The complete assay medium contained the following in a total volume of 0.8 mL: phosphate buffer, pH 7.2, 100 mM; MgCl2, 3 mM; NADP, 3 mM; glucose 6-phospate, 10 mM; glucose-6-phosphate dehydrogenase, 3 enzyme units; reduced glutathione, 50 mM; HMG-CoA (glutaryl-3-^14C, New England Nuclear), 0.2 mM (0.1 μCi); and partially purified enzyme stock solution, 100 μL.
Test compounds or compactin (after first being converted to the sodium salt of their dihydroxy acid form in situ by addition of 1N NaOH (1 equiv)) were added to the assay system in 10-μL volumes at multiconcentration levels. After a 40-minute incubation at 37° C. with shaking and exposure to air, the reaction was stopped by the addition of 0.4 mL of 8N HCl. After an additional 30-minute incubation period at 37° C. to ensure the complete lactonization of mevalonic acid to mevalonolactone, 0.2 mL of the mixture was added to an 0.5×5.0 cm column containing 100-200-mesh Bio-Rex 5, chloride form (Bio-Rad), wetted with distilled water, as described by Alberts et al. [J. Proc. Natl. Acad. Sci. U.S.A., 1980, 77, 3957]. The unreacted [^14 C]HMG-CoA was absorbed on the resin and the [^14 C]mevalonolacetone was eluted with distilled water (2×1 mL) directly into 7-mL scintillation vials. Five milliliters of Aquasol-2 (New England Nuclear) was added to each vial, and radioactivity was measured in a Packard Tri Carb Prias scintillation counter. IC50 values were determined by plotting percentage inhibition against test compound concentration and fitting a straight line to the resulting data by using the least-squares method. For estimation of relative inhibitory potencies, compactin was assigned a value of 100 and the IC50 value of the test compound was compared with that of compactin determined simultaneously.

Compound | Relative Potency
C[C@H]1C=C2C=C[C@H](C)[C@H](CC[C@@H](O)C[C@@H](O)CC(=O)O)[C@H]2[C@@H](OC(=O)C2(C)CC2)C1 | 76
C[C@H]1C=C2C=C[C@H](C)[C@H](CC[C@@H](O)C[C@@H](O)CC(=O)O)[C@H]2[C@@H](OC(=O)C2(C)CCC2)C1 | 171
C[C@H]1C=C2C=C[C@H](C)[C@H](CC[C@@H](O)C[C@@H](O)CC(=O)O)[C@H]2[C@@H](OC(=O)C2(CCCO)CCC2)C1 | 100
C[C@H]1C=C2C=C[C@H](C)[C@H](CC[C@@H](O)C[C@@H](O)CC(=O)O)[C@H]2[C@@H](OC(=O)C2(Cc3ccc(O)cc3)CCC2)C1 | 200
C[C@H]1C=C2C=C[C@H](C)[C@H](CC[C@@H](O)C[C@@H](O)CC(=O)O)[C@H]2[C@@H](OC(=O)C2(CO)CCC2)C1 | 88
C[C@H]1C=C2C=C[C@H](C)[C@H](CC[C@@H](O)C[C@@H](O)CC(=O)O)[C@H]2[C@@H](OC(=O)C2(Cc3ccccc3)CCC2)C1 | 156

The remaining lines, values ahead:

Relative Potency | Compound
240 | CSC1(C(=O)O[C@H]2C[C@@H](C)C=C3C=C[C@H](C)[C@H](CC[C@@H](O)C[C@@H](O)CC(=O)O)[C@H]32)CCC1
188 | C[C@H]1C=C2C=C[C@H](C)[C@H](CC[C@@H](O)C[C@@H](O)CC(=O)O)[C@H]2[C@@H](OC(=O)C2(C)CCCC2)C1
167 | CSC1(C(=O)O[C@H]2C[C@@H](C)C=C3C=C[C@H](C)[C@H](CC[C@@H](O)C[C@@H](O)CC(=O)O)[C@H]32)CCCC1
217 | C[C@H]1C=C2C=C[C@H](C)[C@H](CC[C@@H](O)C[C@@H](O)CC(=O)O)[C@H]2[C@@H](OC(=O)C2(C)CCCCC2)C1
